Test results: US6943191B1, “Disubstituted lavendustin A analogs and pharmaceutical composition comprising the analogs” (The United States of America as represented by the …, priority 1998, dated 2005)
Read-outs that look alike come from different tables or passages of the source.

What was measured:
[1] = test system: K562 cells; experiment: K562 cell culture and growth assay, 6 day MTT; format: cell-based, human; settings: K562, 6 days
Method: This example describes the procedure used for cell culture and growth assays. Human leukemia, Philadelphia-chromosome-positive CML cell line K562 was obtained from ATCC (Rockville, Md.). Cells were cultured in RPMI medium containing 10% fetal calf serum, 2 mM glutamine, 100 units/ml of penicillin and 100 μg/ml streptomycin Cells (2×10^3 cells/well) were incubated with increasing concentrations of compounds of the present invention dissolved in DMSO in a final volume of 200 μl in 96-well plates. Control cells were incubated with medium containing identical concentrations of the DMSO solvent. Growth of K562 cells was quantitated after 6 days by ability of living cells to reduce the yellow dye 3-(4,5-dimethylthiazolyl)-2,5-diphenyltetrazolium bromide (MTT) to a blue formazan product. Further information concerning this procedure is provided by Mossman T., “Rapid Colorimetric Assay for Cellular Growth and Survival—Application to Proliferation and Cytotoxicity Assays,” J. Immunol. Methods 1983, 65:55-63, which is incorporated herein by reference.

[2] = target: T1, p210^bcr-abl (Homo sapiens, UniProt P00519); experiment: Inhibition of in vitro auto-phosphorylation of p210^bcr-abl, immune-complex kinase assay; format: biochemical
T1 construct: immune complexes containing ^32P-labeled p210^bcr-abl were collected on protein Sepharose beads; BCR (N-terminal part of the breakpoint cluster region protein, natural fusion partner); endogenous in cells; host or cells: K562 cells (lysate, immunoprecipitated on Protein A-Sepharose); the other entry of the earlier key: BCR (P11274, Breakpoint cluster region protein)
T1 sequence (P00519 with tags, fused parts or gaps): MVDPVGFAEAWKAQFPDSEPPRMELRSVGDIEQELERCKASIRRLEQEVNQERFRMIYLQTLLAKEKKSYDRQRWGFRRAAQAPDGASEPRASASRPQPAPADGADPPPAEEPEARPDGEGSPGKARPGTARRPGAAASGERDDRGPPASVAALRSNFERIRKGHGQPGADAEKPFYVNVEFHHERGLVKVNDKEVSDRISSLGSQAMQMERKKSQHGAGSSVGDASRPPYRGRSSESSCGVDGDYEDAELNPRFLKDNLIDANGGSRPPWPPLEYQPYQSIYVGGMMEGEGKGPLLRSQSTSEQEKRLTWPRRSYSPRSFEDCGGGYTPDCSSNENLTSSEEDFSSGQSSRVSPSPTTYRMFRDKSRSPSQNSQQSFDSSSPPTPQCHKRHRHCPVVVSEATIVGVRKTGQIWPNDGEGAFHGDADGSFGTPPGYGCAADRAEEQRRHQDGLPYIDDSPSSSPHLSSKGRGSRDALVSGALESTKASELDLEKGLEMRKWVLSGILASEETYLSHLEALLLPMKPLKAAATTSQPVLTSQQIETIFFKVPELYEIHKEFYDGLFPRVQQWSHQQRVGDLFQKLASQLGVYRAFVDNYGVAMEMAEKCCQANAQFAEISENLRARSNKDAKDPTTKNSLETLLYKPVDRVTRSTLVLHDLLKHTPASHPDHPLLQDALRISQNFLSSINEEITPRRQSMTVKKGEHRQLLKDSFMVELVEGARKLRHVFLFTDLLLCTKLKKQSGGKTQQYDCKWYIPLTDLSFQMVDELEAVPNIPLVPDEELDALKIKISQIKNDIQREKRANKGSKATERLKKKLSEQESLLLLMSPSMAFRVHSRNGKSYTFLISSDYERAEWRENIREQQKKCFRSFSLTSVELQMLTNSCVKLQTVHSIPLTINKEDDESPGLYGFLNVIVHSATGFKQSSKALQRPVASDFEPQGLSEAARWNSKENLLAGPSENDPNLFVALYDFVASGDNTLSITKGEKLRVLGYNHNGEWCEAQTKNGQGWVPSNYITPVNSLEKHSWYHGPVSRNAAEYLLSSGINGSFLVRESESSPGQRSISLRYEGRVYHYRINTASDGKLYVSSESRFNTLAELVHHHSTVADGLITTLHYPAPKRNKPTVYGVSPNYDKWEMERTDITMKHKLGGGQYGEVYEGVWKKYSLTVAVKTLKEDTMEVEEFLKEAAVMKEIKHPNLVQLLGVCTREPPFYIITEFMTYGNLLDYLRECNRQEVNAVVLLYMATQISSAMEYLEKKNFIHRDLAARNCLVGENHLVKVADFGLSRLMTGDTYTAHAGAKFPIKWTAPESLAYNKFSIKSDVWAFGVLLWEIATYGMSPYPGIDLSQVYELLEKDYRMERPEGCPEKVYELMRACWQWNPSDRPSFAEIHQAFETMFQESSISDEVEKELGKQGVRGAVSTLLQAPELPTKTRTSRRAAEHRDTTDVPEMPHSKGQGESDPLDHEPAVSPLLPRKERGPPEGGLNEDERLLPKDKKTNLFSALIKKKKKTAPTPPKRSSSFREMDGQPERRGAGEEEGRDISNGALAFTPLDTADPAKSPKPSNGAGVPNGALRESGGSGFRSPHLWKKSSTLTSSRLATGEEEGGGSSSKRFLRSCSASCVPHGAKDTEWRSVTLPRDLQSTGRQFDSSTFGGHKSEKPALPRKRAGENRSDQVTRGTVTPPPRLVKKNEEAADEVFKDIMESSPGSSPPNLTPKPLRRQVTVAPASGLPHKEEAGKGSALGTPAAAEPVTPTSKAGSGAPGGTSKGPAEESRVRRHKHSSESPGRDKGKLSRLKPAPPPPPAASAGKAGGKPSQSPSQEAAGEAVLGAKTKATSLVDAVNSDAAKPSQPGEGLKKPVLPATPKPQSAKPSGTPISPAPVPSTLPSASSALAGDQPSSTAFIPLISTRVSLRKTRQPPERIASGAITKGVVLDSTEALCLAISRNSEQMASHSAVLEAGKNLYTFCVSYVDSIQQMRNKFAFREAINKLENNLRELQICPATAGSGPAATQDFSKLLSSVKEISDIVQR
Method: Inhibition of in vitro auto-phosphorylation of p210^bcr-abl in immune-complex kinase assays were conducted as follows. K562 cell line cells were washed twice in […]. The washed cells were lysed in PLC lysis buffer 150 mM HEPES (pH 7.5), 150 mM NaCl, 10% (v/v) glycerol, 1% (v/v) Triton X-100, 1.5 mM MgCl2, 1 mM EGTA. 10 μg/ml leupeptin, 10 μg/ml aprotinin, 1 mM sodium orthovanadate. 10 mM sodium pyrophosphate, 100 mM sodium fluoride and 1 mM phenylmethyl sulfonyl fluoride| Cell lysates were centrifuged at 100,000 g for 15 minutes and the supernatant collected. Protein concentrations of the clarified supernatants were determined by the Bradford Protein Assay, and the same quantity of protein was immunoprecipitated from control (vehicle-treated) and drug-treated cells. Cell lysates were incubated and gently rocked at 4° C. for 4 hours overnight with antibodies. Immune complexes were collected by incubation with Protein A-Sepharose beads (Pharmacia, Piscataway N.J.) and immune complexes (beads) were washed three times with HNTG buffer [20 mM HEPES (pH 7.5), 10% glycerol, 0.1% Triton X-100, 150 mM NaCl and 1 mM sodium orthovanadate] to remove unbound material. Bound proteins were boiled for 5 minutes in 2×SDS sample buffer (63 mM Tris-HCl, ph 6.8; 10% glycerol; 2% SDS; 0.0025% bromophenol blue: and […] 2 mercaptoethanol) prior to SDS-PAGE. Proteins were resolved on 4-20% gradient mini gels from Novex Experimental Technology (San Diego, Calif.).
After SDS-PAGE, proteins were electrophoretically transferred onto Immobilon polyvinylidene difluoride (PVDF) membranes (Millipore, Bedford, Mass.) at 250 mA for 4 hours at 4° C. using 2× Tris glycine transfer buffer (50 mM Tris, glycine), 20% methanol and 0.1% SDS. Residual binding sites on the membrane were blocked by incubation in TTS (20 mM Tris pH 7.4, 0.9% NaCl and 0.05% Tween 20) containing 3% BSA overnight at 4° C. or for 4 hours at room temperature. Blots were incubated for 1-1.5 hours with TTS containing 0.3% BSA with 1 μg/ml of mouse anti-P-Tyr, 2 μg/ml of mouse anti-Grb2 or 1 μg/ml of rabbit anti-She antibody. Blots were washed three times for 6 minutes each with TTS containing 0.3% BSA and probed with a 1:1000 dilution of rabbit anti-mouse antibody or directly with [^125I]Protein A (Amersham, Arlington Heights, Ill.) in blocking solutions. Proteins were visualized by autoradiography (exposed for 1-2 days at −70° C.).
The p210^bcr-abl, protein immunoprecipitates were washed twice with HTNG buffer Immunoprecipitates were washed once with 50 mM Tris (pH 7.0) and distributed to each reaction in 20 μl of 20 mM PIPES [piperazine-N,N′-bis(ethanesulfonic acid)] (pH 7.0)−20 mM MnCl2. Then, 10 μl of compounds made according to the present invention at desired concentrations from working stock solution prepared in 20 mM PIPEs (pH 7.0)−20 mM MnCl2 were added to each reaction tube. Reactions were initiated with the addition of 10 μl of [γ-^33P]ATP (10 μCi per sample, 3000 Ci/mmol; Amersham), incubated for 20 minutes at 30° C., stopped by addition of 10 μl of 5×SDS sample buffer, heated at 100° C. for 5 minutes, and analyzed on 4-20% SDS-PAGE and by autoradiography.
To assess the effect of drugs added in vitro on the state of p210^bcr-abl in the immune complexes, K562 cells were labeled with ^32P, lysed in PLC buffer and immune complexes containing ^32P-labeled p210^bcr-abl were collected on protein Sepharose beads and beads were washed four times with HNTG buffer. Immune complexes were divided into several tubes in 30 μl of PLC buffer in the presence of compounds made as described herein.

[3] = test system: panel of approximately 60 different human tumor cell lines; experiment: National Cancer Institute drug screen, mean-graph parameters; format: cell-based; settings: mean over cell line panel, two days exposure; for GI50: Homo sapiens, 48 h
Method: Compounds of the present invention also have been subjected to the drug screening procedure employed by the National Cancer Institute for the screening of drugs having possible anticancer utility. The screening procedure uses a diverse, disease-oriented panel consisting of approximately 60 different human tumor cell lines organized into disease-specific subpanels. The compounds of the present invention were tested over a range of concentrations for cytotoxic or growth-inhibitory effects against cell lines comprising the panel. The eight subpanels represented diverse histologies (leukemias, melanomas, and tumors of the lung, colon, kidney, breast, ovary, and brain).
Compounds of the present invention were tested over a period of two days. During this period the cells were continuously exposed to various concentrations of the compounds tested. The tests produced individual dose-responses, one for each cell line (i.e. one for each example), and the data were represented in dose-response curves. The data provided by these dose response curves were summarized using a mean-graph format.
To produce data for the mean-graph format, a compound concentration that produced a target level response was calculated for each cell line. Three different response parameters were evaluated. The first response parameter was the growth inhibition (“GI50”). GI50 is the concentration of compounds made according to the present invention that produced an apparent 50% decrease in the number of tumor cells relative to the appropriate control (not exposed to the compounds of the present invention) at the end of the incubation period.
The second response parameter was the total growth inhibition (“TGI”). TGI is the concentration at which the number of tumor cells remaining at the end of the incubation period substantially equal the number of tumor cells existing at the start of the incubation period.
The third response parameter was the lethal concentration (“LC50”) LC50 is the concentration of compounds made according to the present invention that caused an apparent 50 percent reduction in the number of tumor cells […] at the start of the incubation period.
In a typical GI50 mean graph, the relative position of the vertical reference line along the horizontal concentration axis was obtained by averaging the negative log10GI50 values for all the cell lines tested against the compound. Horizontal bars were then plotted for the individual negative log10GI50 values of each cell line relative to the vertical reference line. The GI50 graph thus provided a characteristic fingerprint for the compound, displaying the individual cell lines that are proportionately more sensitive than average (bars extending to the right of the reference line) or proportionately less sensitive than average (bars extending to the left of the reference line). The length of a bar was proportional to the difference between the log10GI50 value obtained with the particular cell line and the mean (represented by the vertical reference line).
Similar mean graphs were prepared for the TGI and LC50 response parameters.

[4] = Homo sapiens, 144 h, Table 9, mean ± S.E., 4 or more experiments, read-out: IC50 (μM) 6dMTT
[5] = Table 9, immune complex kinase assay, mean ± S.E., 3 experiments, read-out: Enzyme Assays IC50 (μM) p210bcl-abl in vitro phosphorylation
[6] = Table 9, read-out: Tumor cell Mean log GI50 (converted)
[7] = Table 10, immune complex kinase assay, mean ± S.E., 3 experiments, read-out: Enzyme Assays IC50 (μM) p210bcl-abl in vitro phosphorylation
[8] = Homo sapiens, 144 h, Table 8, mean+S.E., 4 or more experiments, read-out: IC50 (μM) 6 dMTT
[9] = Table 8, immune complex kinase assay, mean+S.E., 3 experiments, read-out: Enzyme Assays IC50 (μM) p210bcl-abl in vitro phosphorylation
[10] = Homo sapiens, 144 h, Table 4, read-out: IC50 (6d MTT)
[11] = Table 4, read-out: IC50 (p210^ber-abi in vitro phosphorylation)

| Structure (SMILES) | IC50 [1, 4] [µM] | IC50 [2, 5] [µM] | GI50 [3, 6] [µM] | Tumor Cell Mean log TGI ([3]; Table 9) | further results |
| --- | --- | --- | --- | --- | --- |
| COC(=O)c1ccc(NCC2=CC(=O)C=CC2=O)cc1 [COOCH3 / H / 2,5-quinoyl] | 15.1 ± 1.28 | 15.9 ± 2.91 | 2.51 | −4.8 |  |
| NC(=O)c1ccc(NCC2=CC(=O)C=CC2=O)cc1 [CONH2 / H / 2,5-quinoyl] |  | 5.1 ± 0.3 |  | −4.31 | IC50 ([1]; Table 9, mean ± S.E., 4 or more experiments, read-out: IC50 (μM) 6dMTT): 21.7 ± 2.27 µM; Tumor Cell Mean log GI50 ([3]; Table 9): −4.59 |
| O=C(O)c1ccc(CCc2cc(O)ccc2O)cc1O |  |  |  |  | IC50 ([1]; Table 10, mean ± S.E., 4 or more experiments, read-out: IC50 (μM) 6dMTT): 33.4 ± 4.8 µM; IC50 [2, 7]: 13 ± 1.03 µM; Tumor Cell Mean log GI50 ([3]; Table 10): −4.06; Tumor Cell Mean log TGI ([3]; Table 10): −4.01 |
| CC(C)(C)OC(=O)c1ccc(NCC2=CC(=O)C=CC2=O)cc1 [COOC(CH3)3 / H / 2,5-quinoyl] | 25.4 ± 1.88 | 25.9 ± 9.02 | 8.13 | −4.67 |  |
| COC(=O)c1ccc(NCc2cc(O)ccc2O)cc1O [COOCH3 / OH / H] |  |  |  |  | IC50 [1, 8]: 17.7 µM; IC50 [2, 9]: 6.44 µM; Tumor Cell Mean log GI50 ([3]; Table 8): −5.23; Tumor Cell Mean log TGI ([3]; Table 8): −4.70 |
| CC(C)(C)OC(=O)c1ccc(NCC2=C(Br)C(=O)C=CC2=O)cc1 [Compound 24, 4′-t-butylbenzoate-1′-N-2-bromo-p-quinone-3-methyl amine] | 64.8 ± 1.22 | 2.68 ± 1.33 | 17.8 | −4.31 |  |
| COC(=O)c1ccc(NCC2=C(Br)C(=O)C=CC2=O)cc1Cl [Compound 25, 3′-chloro-4′-methylbenzoate-1′-N-2-bromo-p-quinone-3-methyl amine] | 17.5 ± 0.1 | 2.35 ± 0.41 | 21.9 | −4.34 |  |
| COP(=O)(OC)c1ccc(NCc2cc(O)ccc2O)cc1 [O═P(OCH3)2 / H / H, 4′-phenylphosphonate-1-N-2,5-dihydroxybenzylamine] |  |  |  |  | IC50 [1, 8]: 9.83 µM; IC50 [2, 9]: 0.49 µM; Tumor Cell Mean log GI50 ([3]; Table 8): −4.61; Tumor Cell Mean log TGI ([3]; Table 8): −4.23 |
| O=C1C=CC(=O)C(CNc2ccc(C(=O)OC34CC5CC(CC(C5)C3)C4)cc2)=C1Br [Compound 23, 4′-adamantylbenzoate-1′-N-2-bromo-p-quinone-3-methyl amine] | 24.8 ± 3.1 | 2.38 ± 0.45 | 7.59 | −4.60 |  |
| CC(C)OC(=O)c1ccc(CCc2cc(O)c(Br)cc2O)cc1 |  |  |  |  | IC50 ([1]; Homo sapiens, 144 h, Table 10, mean ± S.E., 4 or more experiments, read-out: IC50 (μM) 6dMTT): 20 ± 0.7 µM; IC50 [2, 7]: 5.77 ± 0.53 µM; GI50 ([3]; Table 10, read-out: Tumor Cell Mean log GI50 (converted)): 7.59 µM; Tumor Cell Mean log TGI ([3]; Table 10): −4.50 |
| CC(C)OC(=O)c1ccc(NCC2=CC(=O)C=CC2=O)cc1Cl [Compound 26, 3′-chloro-4′-isopropylbenzoate-1′-N-p-quinone-2-methyl amine] | 27.7 ± 0.6 | 3.01 ± 1.75 | 9.55 | −4.41 |  |
| NC(=O)c1ccc(NCc2cc(O)ccc2O)cc1 [CONH2 / H / H] |  |  |  |  | IC50 [1, 8]: 20.9 µM; IC50 [2, 9]: 4.23 µM; Tumor Cell Mean log GI50 ([3]; Table 8): −4.53; Tumor Cell Mean log TGI ([3]; Table 8): −4.26 |
| CC(C)OC(=O)c1ccc(CCC2=CC(=O)C=CC2=O)cc1 [Compound 30] |  |  |  |  | IC50 [1, 10]: 26 µM; IC50 [2, 11]: 25 µM |
| CC(C)OC(=O)c1cc(NCc2c(O)ccc(O)c2Br)ccc1Cl [Compound 13] |  |  |  |  | IC50 [1, 10]: 18 µM; IC50 [2, 11]: 10 µM |
